The values that follow come from patent US20160193219A1, “SUBSTITUTED 2,3-DIHYDROIMIDAZO[1,2-C]QUINAZOLINE SALTS” (priority 2011, published 2016).

Broadly, the IC50 is the concentration needed to halve the response being measured. A high value points to a need for much substance. Broadly, the solubility (thermodynamic) is solubility found after equilibrating the solid with the medium.

The conditions of data set [1]: 16 h.
The conditions of data set [2]: for pH: Saturated solution in water; for XRPD (solid residue): solid retained on filter after 20 h in water at 25° C.
The nature of data set [3]: Stability as solid (stored at 90° C. for 1 week, HPLC). The data set is classed as physicochemical. As to conditions: for therm. stab. solid: 1 w @ 90° C.; for sum of impurities: HPLC area.
A short description of data set [4]: Crystallinity by XRPD. It is filed as physicochemical.
Data set [5] relates to PC3. Nature of the data set: Proliferation assay (Cell Titer-Glo, 72 h), PC3. As to conditions: PC3, Prostate, dihydrochloride. (In general: ATP-based viability assays read luminescence as a measure of living cells.)
Data set [6] deals with LNCaP. Nature of the data set: Proliferation assay (Cell Titer-Glo, 72 h), LNCaP. As to conditions: Prostate, dihydrochloride.
Data set [7] has as its system Colo205. Nature of the data set: Proliferation assay (Cell Titer-Glo, 72 h), Colo205. The conditions noted are these: Colo205, Colon, dihydrochloride.
Data set [8] concerns 16 tumor cell lines covering 6 cancer indications. Nature of the data set: Proliferation assays, panel of 16 tumor cell lines. The conditions noted are these: all the tumor cell lines tested (panel of 16). It is filed as cell-based. The procedure:
Cell proliferation is determined using the Cell Titer-Glo luminescent cell viability kit from Promega (Cat. #G7573) after 72 hours exposure to the drugs. Briefly, cells were plated at 500-1000 cells/well of 384-well plates in 25 μL growth medium. For each cell line assayed, cells were plated into a separate plate for determination of luminescence at the t=0 hours and t=72 hour time points. […] Dose plates for t=72 hour time points were treated with compounds diluted into growth medium in a final volume of 30 μL. Cells were then incubated for 72 hours at 37° C. Luminescence values for the t=72 hour samples were determined by adding 30 μL of Promega CellTiter-Glo solution, placing the cells on a shaker for 10 minutes at room temperature, and then reading the luminescence using a Victor luminometer. For data processing, t=0 values are subtracted from those determined for the t=72 hour time points, for both the treated and untreated samples. Percent differences in luminescence between drug treated and controls are used to determine percent inhibition of growth.

The subject of data set [9] is BT474. Nature of the data set: Proliferation assay (Cell Titer-Glo, 72 h), BT474. The conditions noted are these: BT474, Breast, dihydrochloride.
Data set [10] has as its system MCF7. Nature of the data set: Proliferation assay (Cell Titer-Glo, 72 h), MCF7. The conditions noted are these: MCF7, Breast, dihydrochloride.
Data set [11] deals with T47D. Nature of the data set: Proliferation assay (Cell Titer-Glo, 72 h), T47D. The conditions noted are these: Breast, dihydrochloride.
The test system of data set [12] is A549. Nature of the data set: Proliferation assay (Cell Titer-Glo, 72 h), A549. As to conditions: A549, Lung, dihydrochloride.
The subject of data set [13] is BT20. Nature of the data set: Proliferation assay (Cell Titer-Glo, 72 h), BT20. The conditions noted are these: BT20, Breast, dihydrochloride.
Data set [14] has as its system MDA-MB-468. Nature of the data set: Proliferation assay (Cell Titer-Glo, 72 h), MDA-MB-468. The conditions noted are these: MDA-MB-468, Breast, dihydrochloride.
Data set [15] has as its system H460. Nature of the data set: Proliferation assay (Cell Titer-Glo, 72 h), H460. As to conditions: H460, Lung, dihydrochloride.
Data set [16] deals with HT29. Nature of the data set: Proliferation assay (Cell Titer-Glo, 72 h), HT29. The conditions noted are these: HT29, Colon, dihydrochloride.
Data set [17] can be described thus: Additional solubility data in different solvents (20 h at 25° C.). The data set is classed as physicochemical. The procedure: The dihydrochloride of formula (II) was stirred in 20 mL of different solvents for 20 h at 25° C. In all hydrous solvents approx. 2 g of the dihydrochloride of formula (II) have been solved completely.
The test system of data set [18] is SK-Br-3. Nature of the data set: Proliferation assay (Cell Titer-Glo, 72 h), SK-Br-3. The conditions noted are these: SK-Br-3, Breast, dihydrochloride.
The subject of data set [19] is 786O. Nature of the data set: Proliferation assay (Cell Titer-Glo, 72 h), 786O. The conditions noted are these: Kidney, dihydrochloride.
A short description of data set [20]: physchem. As to conditions: 25 °C, water, thermodynamic from solid.
The subject of data set [21] is HCT116. Nature of the data set: Proliferation assay (Cell Titer-Glo, 72 h), HCT116. The conditions noted are these: HCT116, Colon, dihydrochloride.
Where [22] appears, read: solid stored at 90° C. for 1 week.
[23] abbreviates: listed as Hydrochloric acid (Ex. 1), dihydrochloride.

Where a name gives a salt, the structure may show the parent alone. Read-outs that look alike come from different tables or passages of the source. Some results are limits rather than exact numbers.

In the case of `COc1c(OCCCN2CCOCC2)ccc2c1N=C(NC(=O)c1cnc(N)nc1)N1CCN=C21.O=C(O)/C=C\C(=O)O.O=C(O)/C=C\C(=O)O` [Comparative Example 5], the aqu. solubility in [1] is over 8.1 mg/100 ml. Also, in [2], the pH worked out at 3.1 and the “XRPD (solid residue)” value is listed as “crystalline”. For the same compound, the therm. stab. solid entry in data set [3] is reported as “+”. In addition, in [3] (setting [22]), the “HPLC, area % DS” value was ~96.9% (sum of; the “HPLC, wt % DS” value is reported as 59.4 wt %; the sum of impurities entry is “impurities ~3.1%)”. In data set [4], the crystallinity entry is recorded as “+”.
In data set [1], `COc1c(OCCCN2CCOCC2)ccc2c1N=C(NC(=O)c1cnc(N)nc1)N1CCN=C21.CS(=O)(=O)O.CS(=O)(=O)O` [Comparative Example 6] gave an aqu. solubility of over 8.3 mg/100 ml. The pH in [2] is reported as about 2.3. In data set [3], the therm. stab. solid entry is “+”. Also, in data set [3] (setting [22]), the “HPLC, area % DS” value is reported as ~96.7% (sum of; the “HPLC, wt % DS” value was 59.5 wt %; the sum of impurities entry is recorded as “impurities ~3.3%)”.
As to `COc1c(OCCCN2CCOCC2)ccc2c1N=C(NC(=O)c1cnc(N)nc1)N1CCN=C21` [dihydrochloride salt of formula (II), 2-amino-N-[7-methoxy-8-(3-morpholin-4-ylpropoxy)-2,3-dihydroimidazo[1,2-c]quinazolin-5-yl]pyrimidine-5-carboxamide dihydrochloride], the IC50 in data set [5] worked out at 0.09 µM; in data set [6], 0.067 µM; in [7] it was 0.11 µM; in [9], 0.01 µM; in [10] it was 0.009 µM; in data set [11] it was 0.002 µM. The IC50 in data set [12] was 0.044 µM; in data set [13] it was 0.002 µM; in data set [14] it was 0.256 µM; in data set [15] it was 0.067 µM; in [16], 0.01 µM; in data set [18], 0.001 µM. For the same compound, the IC50 in [19] was determined as 0.247 µM; in [21], 0.072 µM. For the same compound, the “difference in the IC50 values (free base vs dihydrochloride salt)” value in [8] was “less than 3 fold”. The compound also showed a pH in data set [2] of about 2.4. Further, the “XRPD (solid residue)” value in data set [2] was “crystalline”. Moreover, the Solubility in [2] (water, 25° C., 20 h, HPLC) is listed as over 8.8 mg/100 ml; in [17] (0.1M HCl, 20 h at 25° C.), “≧8800 mg/100 ml soluble”; in data set [17] (Acetone, 20 h at 25° C.), 0.3 mg/100 ml practically insoluble; in data set [17] (Acetonitrile, 20 h at 25° C.), 1.1 mg/100 ml practically insoluble; in data set [17] (Buffer pH 4.5, 20 h at 25° C.) it was “≧8900 mg/100 ml soluble”; in data set [17] (Buffer pH 7.0, 20 h at 25° C.) it was “≧8700 mg/100 ml soluble”. Besides, the Solubility in [17] (Ethanol, 20 h at 25° C.) was 24.8 mg/100 ml very slightly soluble; in data set [17] (PEG400, 20 h at 25° C.), 301 mg/100 ml slightly soluble; in data set [17] (Water, 20 h at 25° C.), “≧9400 mg/100 ml soluble”. In addition, in [3] (setting [23]), the therm. stab. solid entry is “+”. The “HPLC, area % DS” value in [3] (setting [22]) is ~98.2%; sum of. For the same compound, the “HPLC, wt % DS” value in data set [3] (setting [22]) was about 65.6 wt %. Also, the “Stability as solid (Comments)” value in data set [3] (setting [22]) is “Stable”. Also, the sum of impurities result in data set [3] (setting [22]) is reported as “impurities ~1.8%”. Also, in [4] (setting [23]), the crystallinity entry is given as “++”. The same compound came in with a solubility (thermodynamic) at 16 h in data set [20] of over 88 µg/mL.
